Common to all, as to experiment: Yeast two-hybrid assay (HIS3 / β-galactosidase reporter)
One test deals with SF1 (Bos taurus, UniProt Q04752). Format: cell-based, bovine. Further details: The coding region for the wild type bovine SF1 was first subcloned into a yeast expression vector, pGBT9; expressed in transfected cells; host or cells: yeast (Y187, or Y187 x CG1945 diploids). The conditions noted are these: no ligand. The protocol: (§1) The protein-protein interactions between the full-length PNRC or PNRC fragments and SF1, ERRα1, and several other nuclear receptors were analyzed by yeast two-hybrid assays. The yeast two-hybrid assay was used to test if PNRC also interacts with other members of the nuclear receptor superfamily. pGBT9-ERRα-1 yeast expression plasmid was prepared by inserting the PCR-amplified ERRA-1 coding region into pGBT9 through an EcoRI site. To construct the plasmid pGBT9-ER274-595, the coding sequence from amino acids 274 to 595 (LBD) of ERα was amplified by PCR with the sense primer 5′-[…]-3′ (SEQ ID NO:1) and antisense primer 5′-[…]-3′ (SEQ ID NO:2) and cloned into the EcoRI/,SalI site of the pGBT9 yeast expression plasmid. pSG5-GRIP1 and several yeast expression plasmids coding for fusion proteins of Gal4-DBD and HBDs of AR, GR, PR, TR, RAR, and RXR in pGBT9 vector were kindly provided by Dr. Michael R. Stallcup (University of Southern California, Los Angeles, Calif.) (Voegel et al., 1996; Hong et al., 1996; Ding et al., 1998). The yeast mating approach was used in yeast two-hybrid assays to study protein-protein interactions as described in Clontech's protocol. Briefly, pGBT9 (DNA-BD vector only), pGBT9/target plasnmids for SF1, ERRα1, and other HBDs of nuclear receptors, and DNA-BD/control plasmids (as negative control) were introduced into the reporter strain Y187, and the AD vector alone or wild type PNRC and its deleted fragments-containing pACT2 derivatives were used to transform yeast strain CG1945. The yeast mating was performed by picking one colony from each type and growing both colonies in liquid YPD medium with or without a proper ligand at the following concentrations: 100 nM of estradiol for ER; 10 μM of deoxycorticosterone for GR; 100 nM of dihydrotestosterone for AR; 500 nM of progesterone for PR; 10 μM of T3 for TR; 10 μM of all-trans-retinoic acid for RAR; and 10 μM of 9-cis-retinoic acid for RXR. The same amount of an aliquot of the mating culture was spread on both SD/-Leu/-Trp plates to select diploid strains bearing both plasmids and SD/-Leu/-Trp/-His/+3-AT plates to score the growth of the diploid cells that express the two interacting target proteins. The His3 positive colonies were further analyzed for β-galactosidase activity by liquid β-galactosidase activity measurement as essentially described in the protocol.
(§2) Yeast strains Y187 expressing the Gal4DB fusion to the nuclear receptors and CG1945expressing Gal4AD alone or Gal4AD-PNRC fusion protein were mated by co-culturing, and selected for the presence of both two-hybrid plasmids. The expression of interacting hybrid proteins in yeast diploids was analyzed to determine if there was induction of HIS3 expression as shown in FIG. 1A and LacZ expression as shown in FIGS. 1B and 1C. […] As shown in FIGS. 1A-C, PNRC also interacted specifically with all seven nuclear receptor HBDs, including ER, AR, GR, TR, PR, RAR and RXR, and these interactions were completely ligand-dependent. […] However, no interactions occurred either between PNRC and an irrelevant protein such as human lamin C protein or between nuclear receptors and Gal4activation domain alone.

The next test deals with T1, ERRα1 (Homo sapiens, UniProt P11474).
T1 construct: inserting the PCR-amplified ERRA-1 coding region into pGBT9 through an EcoRI site; expressed in transfected cells; host or cells: yeast Y187 x CG1945 diploids
T1 sequence (P11474 1-423): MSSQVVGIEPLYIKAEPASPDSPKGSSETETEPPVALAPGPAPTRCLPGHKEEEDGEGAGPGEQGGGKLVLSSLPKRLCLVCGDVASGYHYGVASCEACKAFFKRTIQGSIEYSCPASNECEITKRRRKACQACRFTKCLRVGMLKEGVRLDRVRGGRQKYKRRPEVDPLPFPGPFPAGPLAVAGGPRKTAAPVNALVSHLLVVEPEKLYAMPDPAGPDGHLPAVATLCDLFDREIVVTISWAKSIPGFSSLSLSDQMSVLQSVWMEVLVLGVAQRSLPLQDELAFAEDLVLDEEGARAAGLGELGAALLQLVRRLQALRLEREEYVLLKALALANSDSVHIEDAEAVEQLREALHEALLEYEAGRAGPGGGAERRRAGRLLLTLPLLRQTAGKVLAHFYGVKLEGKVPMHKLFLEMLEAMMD
The format is cell-based. Particulars: no ligand. The protocol: as §1, §2

For another test, the system named is RAR HBD. The format is cell-based. The conditions noted are these: 10 μM of all-trans-retinoic acid. As for the experimental part: as §1, §2
In the next test the test system is RXR HBD. The format is cell-based. Particulars: 10 μM of 9-cis-retinoic acid. As for the experimental part:
as §1, §2

A further test concerns GR HBD. The format is cell-based. Particulars: 10 μM of deoxycorticosterone. As for the experimental part: as §1, §2
The test system of another test is TR HBD. The format is cell-based. The conditions noted are these: 10 μM of T3. The protocol: as §1, §2
Another test concerns the target T2, AR HBD (Homo sapiens, UniProt P10275).
T2 construct: fusion proteins of Gal4-DBD and HBDs of AR, GR, PR, TR, RAR, and RXR in pGBT9 vector; expressed in transfected cells; host or cells: yeast Y187 x CG1945 diploids; plasmid a gift of M. R. Stallcup
Format: cell-based. The conditions noted are these: 100 nM of dihydrotestosterone. As for the experimental part: as §1, §2

In another test the target is T3, ER (ERα LBD, aa 274-595) (Homo sapiens, UniProt P03372).
T3 construct: expressed in transfected cells; host or cells: yeast Y187 x CG1945 diploids
Format: cell-based. The conditions noted are these: 100 nM of estradiol. The protocol: as §1, §2

The test system of another test is PR HBD. Format: cell-based. The conditions noted are these: 500 nM of progesterone. As for the experimental part: as §1, §2
Sequence of PR HBD (P06401 679-933 limits assumed): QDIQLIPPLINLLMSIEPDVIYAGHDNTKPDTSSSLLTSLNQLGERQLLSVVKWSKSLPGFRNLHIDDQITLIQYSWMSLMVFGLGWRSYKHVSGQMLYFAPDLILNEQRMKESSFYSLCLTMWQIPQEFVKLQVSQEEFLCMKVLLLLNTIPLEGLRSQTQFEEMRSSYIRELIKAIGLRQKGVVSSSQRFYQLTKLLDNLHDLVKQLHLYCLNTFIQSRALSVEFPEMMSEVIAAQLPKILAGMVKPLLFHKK

Sequence of SF1 (Q04752 whole entry, the tested form may be a part): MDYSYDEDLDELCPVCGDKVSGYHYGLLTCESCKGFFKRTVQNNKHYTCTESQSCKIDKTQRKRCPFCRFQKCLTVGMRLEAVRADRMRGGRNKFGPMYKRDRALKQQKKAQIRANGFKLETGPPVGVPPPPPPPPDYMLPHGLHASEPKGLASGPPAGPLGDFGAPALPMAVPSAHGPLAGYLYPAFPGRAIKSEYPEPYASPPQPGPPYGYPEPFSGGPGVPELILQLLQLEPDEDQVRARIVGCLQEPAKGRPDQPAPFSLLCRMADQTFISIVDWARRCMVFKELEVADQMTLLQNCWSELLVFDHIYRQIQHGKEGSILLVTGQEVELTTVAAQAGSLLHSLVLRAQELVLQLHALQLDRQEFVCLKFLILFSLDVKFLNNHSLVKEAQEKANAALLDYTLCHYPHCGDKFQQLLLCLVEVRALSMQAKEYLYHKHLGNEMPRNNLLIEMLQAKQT
T3 sequence (P03372 274-595): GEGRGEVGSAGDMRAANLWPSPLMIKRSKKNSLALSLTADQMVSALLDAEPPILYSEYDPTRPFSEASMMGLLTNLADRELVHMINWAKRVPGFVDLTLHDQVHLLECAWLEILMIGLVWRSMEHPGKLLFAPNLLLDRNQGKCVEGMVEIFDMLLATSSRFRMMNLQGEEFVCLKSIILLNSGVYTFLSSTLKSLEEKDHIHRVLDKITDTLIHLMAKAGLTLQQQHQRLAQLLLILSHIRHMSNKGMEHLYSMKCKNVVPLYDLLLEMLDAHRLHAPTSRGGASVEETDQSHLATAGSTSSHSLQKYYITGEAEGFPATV
T3 sequence (Q12796 whole entry partner, the tested form may be a part): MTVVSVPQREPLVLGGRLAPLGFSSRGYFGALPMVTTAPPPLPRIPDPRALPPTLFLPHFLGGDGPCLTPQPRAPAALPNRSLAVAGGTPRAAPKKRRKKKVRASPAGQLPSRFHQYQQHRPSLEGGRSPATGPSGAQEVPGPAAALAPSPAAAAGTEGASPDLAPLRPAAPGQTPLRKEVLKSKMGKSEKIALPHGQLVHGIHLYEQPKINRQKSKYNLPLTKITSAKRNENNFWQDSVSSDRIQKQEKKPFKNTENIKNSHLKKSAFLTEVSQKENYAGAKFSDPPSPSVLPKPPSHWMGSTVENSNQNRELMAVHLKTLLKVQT
T2 sequence (P10275 669-900 limits assumed): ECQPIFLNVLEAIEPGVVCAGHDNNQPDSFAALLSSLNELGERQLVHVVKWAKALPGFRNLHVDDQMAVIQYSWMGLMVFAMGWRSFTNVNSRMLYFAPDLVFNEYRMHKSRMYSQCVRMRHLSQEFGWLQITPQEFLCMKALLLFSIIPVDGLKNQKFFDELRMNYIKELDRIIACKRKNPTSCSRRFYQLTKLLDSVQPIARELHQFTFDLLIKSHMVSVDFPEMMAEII
T2 sequence (Q12796 whole entry partner, the tested form may be a part): as the sequence (Q12796 whole entry partner, the tested form may be a part) above

“PNRC: proline-rich nuclear receptor co-regulatory protein, 327 aa, SEQ ID NO:8, nuclear receptor coactivator”: the “interaction with SF1” value with SF1 was “interacted with orphan receptors SF1 and ERRα1 in the absence of any added activator or ligand”. Further, the “interaction with ERRα1” value in the test with ERRα1 is “interacted with orphan receptors SF1 and ERRα1 in the absence of any added activator or ligand”. The “interaction with RAR” value in the test on RAR HBD is “only weak interactions were detected”. Moreover, the “interaction with RXR” value with RXR HBD is listed as “interacts strongly”. Also, in the test with GR HBD, the “interaction with GR” value is “only weak interactions were detected”. Moreover, in the test with TR HBD, the “interaction with TR” value is given as “interacts strongly”. For the same substance, in the test with AR HBD, the “interaction with AR” value is “only weak interactions were detected”. In addition, in the test with ER (ERα LBD, aa 274-595), the “interaction with ER” value was “only weak interactions were detected”. In addition, the “interaction with PR” value in the test on PR HBD is on record as “interacts strongly”.

The values are drawn from patent US6972178B1, “Drug screening using a proline-rich nuclear receptor co-regulatory protein/nuclear receptor co-expression system” (City of Hope, priority 1999, dated 2005).
